Active and inactive are the calls of the source. No cut-off for these calls is given here.

For this assay, the system named is Phellinus tremulae. As to the kind of experiment: Antifungal activity against Phellinus tremulae. The assay is classed as functional, organism-based.

As to `CC1(C)CCC[C@]2(C)[C@H]3COC(=O)[C@@]3(O)CC[C@@H]12`, the result was Active.

The record behind these values is ChEMBL document CHEMBL1149750, “Drimane Sesquiterpene Lactones from Peniophora polygonia” (J Nat Prod, 1992).
